In assay [1] the target is T1, human TREX2 (residues M44-A279) (Homo sapiens, UniProt Q9BQ50).
T1 construct: human TREX2 (residues M44-A279, expressed in E. coli); His-Tev (His tag with TEV site) (N); made in house; host or cells: E. coli
T1 sequence (Q9BQ50 44-279 isoform Q9BQ50-1): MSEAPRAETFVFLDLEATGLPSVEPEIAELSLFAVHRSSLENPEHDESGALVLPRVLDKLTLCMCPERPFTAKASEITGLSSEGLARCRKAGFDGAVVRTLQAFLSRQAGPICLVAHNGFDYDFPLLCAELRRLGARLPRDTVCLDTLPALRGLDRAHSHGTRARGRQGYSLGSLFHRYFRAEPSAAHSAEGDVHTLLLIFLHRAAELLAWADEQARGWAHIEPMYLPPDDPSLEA
Nature of the assay: TREX2 Biochemical Assay (fluorescence assay, degradation of dsDNA substrate). As to conditions: 2.5 nM TREX2, 60 nM dsDNA substrate, 25 minutes at room temperature. In short, it runs like this:
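Final conditions: 2.5 nM His-Tev-tagged TREX2 (E. coli-expressed), 60 nM fluorophore/quencher-labelled dsDNA, 50 mM Tris pH 7.4, 150 mM NaCl, 100 mM MgCl2, 1% DMSO; 10-point compound dose-response. Incubated 25 min at room temperature, then EDTA-quenched; fluorescence read at ex 570/em 615 nm. IC50 from four-parameter fit against pre-quenched and no-inhibitor controls.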

For assay [2], the target named is T2, full length human TREX1 (Homo sapiens, UniProt Q9NSU2).
T2 construct: N-terminally His-Tev tagged full length human TREX1; His-Tev (His tag with TEV site) (N); made in house; host or cells: E. coli
T2 sequence (Q9NSU2 1-314): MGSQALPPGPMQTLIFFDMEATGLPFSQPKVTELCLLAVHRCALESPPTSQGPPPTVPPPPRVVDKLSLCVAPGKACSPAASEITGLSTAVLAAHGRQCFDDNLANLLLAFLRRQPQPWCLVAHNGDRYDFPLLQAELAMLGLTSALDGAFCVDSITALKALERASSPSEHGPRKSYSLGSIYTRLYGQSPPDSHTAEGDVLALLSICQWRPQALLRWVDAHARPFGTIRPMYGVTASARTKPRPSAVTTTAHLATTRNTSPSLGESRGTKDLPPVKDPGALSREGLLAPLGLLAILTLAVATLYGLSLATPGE
Description: TREX1 Biochemical Assay (fluorescence assay, degradation of dsDNA substrate). As to conditions: 150 pM TREX1, 60 nM dsDNA substrate, 25 minutes at room temperature. In short, it runs like this:
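N-terminally His-Tev-tagged enzyme expressed in E. coli, 150 pM, with 60 nM dual-labelled dsDNA (TEX615/quencher) in pH 7.4 Tris buffer with MgCl2, 1% DMSO; 10-point dose-response, 25 min at room temperature, then EDTA quench. Fluorescence at 615 nm (excitation 570 nm); IC50 from four-parameter fit against pre-quenched and no-inhibitor controls.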

For orientation: IC50 means the concentration that gives 50% inhibition.

With `Cc1nc(N2CCC(O)(c3ccc(F)c(F)c3)CC2)cc(-n2ccnc2-c2ccccn2)n1` [Example 106, 4-(3,4-difluorophenyl)-1-(2-methyl-6-(2-(pyridin-2-yl)-1H-imidazol-1-yl)pyrimidin-4-yl)piperidin-4-ol], the values for the IC50 in assay [1] and in assay [2] were above 100 µM and 1 to 10 µM, respectively.
For the compound `O=C(NCC(O)c1ccccc1)c1cncc(N2CCC(O)(c3ccc(F)cc3)CC2)n1` (centres unmarked) [Example 71, 6-(4-(4-fluorophenyl)-4-hydroxypiperidin-1-yl)-N-(2-hydroxy-2-phenylethyl)pyrazine-2-carboxamide], the IC50 in assay [1] is above 100 µM; in assay [2], 1 to 10 µM.
For `Cc1nn(C)cc1-c1nsc(N2CCC(O)(c3ccc(F)c(F)c3)CC2)n1` [Example 96, 4-(3,4-difluorophenyl)-1-(3-(1,3-dimethyl-1H-pyrazol-4-yl)-1,2,4-thiadiazol-5-yl)piperidin-4-ol] the same measures were above 100 µM and 0.1 to 1 µM.
For `OC1(c2ccccn2)CCN(c2cncc(-n3cccn3)n2)CC1` [Example 74, 1-(6-(1H-pyrazol-1-yl)pyrazin-2-yl)-4-(pyridin-2-yl)piperidin-4-ol] the same measures were above 100 µM and above 10 µM.
Consider `Cc1nn(C)cc1-c1cc(N2CCC(O)(c3ccc(F)c(F)c3)CC2)ccn1` [Example 49, 4-(3,4-difluorophenyl)-1-(2-(1,3-dimethyl-1H-pyrazol-4-yl)pyridin-4-yl)piperidin-4-ol], for which the IC50 in assay [1] is above 100 µM; in assay [2], 1 to 10 µM.
As for `O=C(NCCc1ccccn1)c1cncc(N2CCC(O)(c3ccc(F)cc3)CC2)n1` [Example 68, 6-(4-(4-fluorophenyl)-4-hydroxypiperidin-1-yl)-N-(2-(pyridin-2-yl)ethyl)pyrazine-2-carboxamide], the IC50 in assay [1] is above 100 µM; in assay [2], 1 to 10 µM.
For the compound `Cn1cc(-c2cc(-c3cnn(C)c3)nc(N3CCC(O)(c4cccc(F)c4)CC3)c2)cn1` [Example 60, 1-(4,6-bis(1-methyl-1H-pyrazol-4-yl)pyridin-2-yl)-4-(3-fluorophenyl)piperidin-4-ol], the IC50 was above 100 µM in assay [1] and 1 to 10 µM in assay [2].
As to `COCCNC(=O)c1cncc(N2CCC(O)(c3ccc(F)cc3)CC2)n1` [Example 69, 6-(4-(4-fluorophenyl)-4-hydroxypiperidin-1-yl)-N-(2-methoxyethyl)pyrazine-2-carboxamide], the IC50 in assay [1] was above 100 µM; in assay [2], above 10 µM.
As for `OC1(c2ccc(F)cc2)CCN(c2cccc(-n3cccn3)n2)CC1` [Example 79, 1-(6-(1H-pyrazol-1-yl)pyridin-2-yl)-4-(4-fluorophenyl)piperidin-4-ol], the IC50 is above 100 µM in assay [1] and 1 to 10 µM in assay [2].
For `Cc1nn(C)cc1-c1csc(N2CCC(O)(c3ccc(F)c(F)c3)CC2)n1` [Example 97, 4-(3,4-difluorophenyl)-1-(4-(1,3-dimethyl-1H-pyrazol-4-yl)thiazol-2-yl)piperidin-4-ol] the same measures were above 100 µM and 1 to 10 µM.
As for `Cn1cc(-c2cc(N3CCC(O)(c4cccc(F)c4)CC3)cc(-c3cnn(C)c3)n2)cn1` [Example 61, 1-(2,6-bis(1-methyl-1H-pyrazol-4-yl)pyridin-4-yl)-4-(3-fluorophenyl)piperidin-4-ol], the IC50 in assay [1] is above 100 µM; in assay [2] it was 1 to 10 µM.
For the compound `Cc1cc(-c2cncc(N3CCC(O)(c4ccc(F)c(F)c4)CC3)n2)n(C)n1` [Example 53, 4-(3,4-difluorophenyl)-1-(6-(1,3-dimethyl-1H-pyrazol-5-yl)pyrazin-2-yl)piperidin-4-ol], the IC50 was above 100 µM in assay [1] and 1 to 10 µM in assay [2].
As to `OC1(c2ccc(F)cc2)CCN(c2ccc3nccn3n2)CC1` [Example 81, 4-(4-fluorophenyl)-1-(imidazo[1,2-b]pyridazin-6-yl)piperidin-4-ol], the IC50 was above 100 µM in assay [1] and 1 to 10 µM in assay [2].

For the origin of these results see patent US20220313701A1, “MODULATORS OF TREX1” (Constellation Pharmaceuticals, Inc., priority 2019, published 2022).
